# Earlier results, collected in patent US20150182479A1, “Method of delivering agmatine for medical treatment” (TOPAZ VENTURES, INC., priority 2013, published 2015).
# Assays:
# [1] = system: mouse; conditions: FST; for effect on antidepressant like effect of fluoxetine or paroxetine: agonists ip, agmatine-raising drugs icv; for effect of prior administration on antidepressant like effect of paroxetine and fluoxetine: paroxetine 10 mg/kg ip, fluoxetine 20 mg/kg ip
# [2] = system: mice; conditions: for effect on morphine analgesia: agmatine 10 mg/kg i.p. 30 min before morphine s.c.; for effect on oxycodone analgesia: agmatine 10 mg/kg i.p. 30 min before oxycodone s.c.
# [3] = system: thermal nociception; conditions: for effect of antagonist on response-latency enhancement by WIN 55212-2: WIN 55212-2 2 mg/kg, SR 141716A 5 mg/kg i.p., idazoxan 2 and 5 mg/kg, yohimbine 5 mg/kg
compound,measurement,setting,value
c1ccc2oc(C3=NCCN3)cc2c1 [2-(2-benzofuranyl)-2-imidazoline],effect on antidepressant like effect of fluoxetine or paroxetine,[1],potentiated
Cc1noc(NS(=O)(=O)c2cccc3c(N(C)C)cccc23)c1C [BMS 182874],"tail-flick latency, drug alone",[2]; 360-min observation period,did not produce any change
same,effect of pretreatment on analgesic effect produced by agmatine alone,"[2]; tail-flick, mice",did not increase
same,effect on agmatine-induced potentiation of morphine and oxycodone analgesia,"[2]; tail-flick, mice",not altered
same,effect on morphine analgesia,"[2]; tail-flick, mice",potentiates
same,effect on oxycodone analgesia,"[2]; tail-flick, mice",potentiates
N=C(N)NCCC[C@@H](N)C(=O)O [D-arginine],effect of prior administration on antidepressant like effect of paroxetine and fluoxetine,[1],blocked
N=C(N)NCCC[C@H](N)C(=O)O [L-arginine],effect on antidepressant like effect of fluoxetine or paroxetine,[1],potentiated
Cc1c(C(=O)NN2CCCCC2)nn(-c2ccc(Cl)cc2Cl)c1-c1ccc(Cl)cc1 [SR 141716A],effect of antagonist on response-latency enhancement by WIN 55212-2,[3],blocked
N=C(N)NN [aminoguanidine],effect on antidepressant like effect of fluoxetine or paroxetine,[1],potentiated
NC(N)=NCCCCN=C(N)N [arcaine],effect on antidepressant like effect of fluoxetine or paroxetine,[1],potentiated
Clc1cccc(Cl)c1N=C1NCCN1 [clonidine],effect on morphine analgesia,"[2]; tail-flick, mice",potentiate
same,effect on oxycodone analgesia,"[2]; tail-flick, mice",potentiate
same,effect on antidepressant like effect of fluoxetine or paroxetine,[1],potentiated
CCC1(C2=NCCN2)Cc2ccccc2O1 (stereo not drawn) [efaroxan],effect of prior administration on antidepressant like effect of paroxetine and fluoxetine,[1],blocked
c1ccc2c(c1)OCC(C1=NCCN1)O2 (stereo not drawn) [idazoxan],effect on BMS 182874-induced potentiation of oxycodone analgesia,"[2]; tail-flick, mice",blocked
same,effect on agmatine-induced potentiation of morphine and oxycodone analgesia,"[2]; tail-flick, mice",blocked
same,effect of prior administration on antidepressant like effect of paroxetine and fluoxetine,[1],blocked
same,effect of antagonist on response-latency enhancement by combination of WIN 55212-2 and agmatine,"[3]; WIN 55212-2 2 mg/kg and agmatine, yohimbine 5 mg/kg i.p.",blocked
same,effect of antagonist on response-latency enhancement by WIN 55212-2,[3],attenuated
COc1nc(C)nc(Cl)c1N=C1NCCN1 [moxonidine],effect on antidepressant like effect of fluoxetine or paroxetine,[1],potentiated
COC(=O)[C@@H]1[C@H]2C[C@H]3c4[nH]c5ccccc5c4CCN3C[C@@H]2CC[C@@H]1O [yohimbine],effect on BMS 182874-induced potentiation of morphine analgesia,"[2]; tail-flick, mice",not affected
same,effect on BMS 182874-induced potentiation of oxycodone analgesia,"[2]; tail-flick, mice",not affected
same,effect on agmatine-induced potentiation of morphine and oxycodone analgesia,"[2]; tail-flick, mice",blocked
same,effect of antagonist on response-latency enhancement by WIN 55212-2,[3],not affected
"(−)-cis 3-(2-hydroxy-4-(1,1-dimethylheptyl)phenyl)-trans-4-(3-hydroxypropyl) cyclohexanol [CP55,940]","hot-plate response latency, drug given alone","[3]; i.p., WIN 55212-2 or CP55,940 1, 2 or 3 mg/kg, agmatine 50 or 100 mg/kg",increased
difluoromethyl ornithine,effect on antidepressant like effect of fluoxetine or paroxetine,[1],potentiated
